These results are taken from patent US9849097B2, “Dosage forms containing terbutaline sulphate” (Jagotec AG, priority 2012, dated 2017).

The nature of data set [1]: accelerated stability study on the drug. As to conditions: 60° C. and 90% relative humidity for up to 4 weeks. Format: physicochemical. Here is the method:
Thus, in the development of a terbutaline sulphate dosage form, the applicant carried out accelerated stability studies on the drug at a temperature of 60° C. and 90% relative humidity for up to 4 weeks.

The conditions of data set [2]: oxidative degradation, aqueous solutions; cited from earlier work.

Regarding `CC(C)(C)NCC(O)c1cc(O)cc(O)c1` (centres unmarked) [terbutaline sulphate], in data set [1], the degradation products result is given as “No degradation products were observed”.

In the case of `CC(C)(C)NCC(O)c1cc(O)cc(O)c1` (centres unmarked) [terbutaline], the “stability of drug substance” value in data set [2] is listed as “highly stable”.
